Calls of active or inactive are those of the source. The rule behind the calls is not given here.
Legend:
T-24 [1] = experiment: Inhibition of cell migration in human T24 cells at 0.50 uM incubated for 24 hrs by scratch assay (reference value: 88 %); assay type: functional; conditions: T-24, 24 h
T-24 [2] = experiment: Induction in apoptosis in human T24 cells assessed as early apoptotic cells at 0.13 uM incubated for 48 hrs by Annexin V-FITC staining based flow cytometry analysis (reference value: 3.64 %); assay type: functional
T-24 [3] = experiment: Induction in apoptosis in human T24 cells assessed as late apoptotic cells at 0.13 uM incubated for 48 hrs by Annexin V-FITC staining based flow cytometry analysis (reference value: 4.78 %); assay type: functional
[4] = target: T1, Cytoplasmic tyrosine-protein kinase BMX (Homo sapiens) (UniProt P51813); experiment: Inhibition of BMX phosphorylation in human T24 cells incubated for 24 hrs by Western blotting analysis; assay type: cell-based; conditions: dose 0.13-0.5 µM
T1 sequence (whole entry): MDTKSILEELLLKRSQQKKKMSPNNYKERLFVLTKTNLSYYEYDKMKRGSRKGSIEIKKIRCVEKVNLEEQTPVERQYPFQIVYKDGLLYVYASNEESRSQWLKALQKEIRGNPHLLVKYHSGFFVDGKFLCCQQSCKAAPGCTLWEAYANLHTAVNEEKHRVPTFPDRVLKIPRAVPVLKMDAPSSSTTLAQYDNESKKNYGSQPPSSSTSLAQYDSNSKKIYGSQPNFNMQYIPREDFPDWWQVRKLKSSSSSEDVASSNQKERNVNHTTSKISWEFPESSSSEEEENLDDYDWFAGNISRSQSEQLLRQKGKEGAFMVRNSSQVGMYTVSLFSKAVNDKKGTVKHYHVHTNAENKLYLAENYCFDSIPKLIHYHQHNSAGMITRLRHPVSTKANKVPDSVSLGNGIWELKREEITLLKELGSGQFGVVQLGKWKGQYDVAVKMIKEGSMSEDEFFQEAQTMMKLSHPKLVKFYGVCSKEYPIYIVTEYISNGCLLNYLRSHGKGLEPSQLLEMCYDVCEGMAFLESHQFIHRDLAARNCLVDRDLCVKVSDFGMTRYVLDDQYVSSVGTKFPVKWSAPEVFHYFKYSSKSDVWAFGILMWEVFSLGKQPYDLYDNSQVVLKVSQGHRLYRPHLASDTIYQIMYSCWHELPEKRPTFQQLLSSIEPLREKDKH

MB49 [5] = experiment: Antitumor immunity against mouse MB49 cells implanted in male C57BL/6 mouse assessed as increase in infiltration of CD3+ cells at 1 mg/kg,iv bid measured after 14 days immunofluorescence based analysis; assay type: functional, organism-based; conditions: time 14.0 day
MB49 [6] = experiment: Antitumor immunity against mouse MB49 cells implanted in male C57BL/6 mouse assessed as increase in infiltration of CD4+ cells at 1 mg/kg,iv bid measured after 14 days immunofluorescence based analysis; assay type: functional, organism-based; conditions: time 14.0 day
[7] = Antiproliferative activity against […] MB49 cells assessed as inhibition of cell proliferation measured after 72 hrs by MTT assay; assay type: functional, cell-based; conditions: MB49, 72 h
T-24 [8] = experiment: Induction of cell cycle arrest in human T24 cells assessed as accumulation of cells at G2/M phase at 0.13 uM incubated for 24 hrs by RNase A/Propidium Iodide staining based flow cytometry analysis (reference value: 22.67 %); assay type: functional
[9] = Antitumor activity against mouse MB49 cells implanted in male C57BL/6 mouse model assessed as tumor growth inhibition at 1 mg/kg,iv bid measured after 14 days relative to control; assay type: functional; conditions: MB49, 336 h, time 14 day, read-out: TGI
[10] = AUC(0 to t) in Sprague-Dawley rat at 5 mg/kg, iv measured upto 24 hrs; assay type: ADME, organism-based; conditions: in vivo
[11] = Downregulation of AKT expression level in human T24 cells at 0.13 to 0.50 uM incubated for 24 hrs by Western blotting analysis relative to control; assay type: functional, T-24; conditions: dose 0.13-0.5 µM, at 0.13 to 0.5 µM

For `C[C@H]1CCC/C=C/[C@@H]2C[C@H](O)C[C@H]2[C@H](OC(=O)c2cccnc2)/C=C/C(=O)O1`, the wound closure at 0.5 µM (T-24 [1]) was 17%, the Activity (T-24 [2]) was 5.52% and the Activity (T-24 [3]) was 4.41%. For the same compound, the inhibition [4] was “Dose-dependent-effect”, the Activity (MB49 [5]) was “Active” and the Activity (MB49 [6]) was “Active”. The IC50 [7] was 4.77 µM, the Activity (T-24 [8]) was 22.53% and the inhibition in vivo at 1 mg/kg [9] was 51%. For the same compound, the AUC(0-t) at 24 h [10] was 1350 ng·h/mL and the Activity [11] was 62%.

Source: ChEMBL document CHEMBL6103652, “Niacin Ester Derivative of Brefeldin A as a Potential Dual-Target Arf1/BMX Inhibitor for Bladder Cancer” (J Nat Prod, 2025)
